From patent publication US8530493B2, “Indolopyridines as Eg5 kinesin modulators” (4SC AG, priority 2006, dated 2013)

What follows are molecules tested on RKO p21 uninduced (proliferating) colon adenocarcinoma cells (assay: Alamar Blue cell viability assay, RKO p21 uninduced (proliferating)). Conditions: Homo sapiens, Table B3, anti-proliferative/cytotoxic activity, 72 hours, read-out: −log EC50 RKO p21 uninduced (proliferating) (converted).
Format: cell-based
Summary of the method: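 Viability read by Alamar Blue fluorescence (ex 544, em 590 nm), normalised to untreated wells, after 72 h, 37° C, 5% CO2 compound exposure in triplicate. Cells were uninduced (no Ponasterone A), proliferating RKO colon carcinoma p27 or p21 subclones in DMEM with 10% FCS; values are −log EC50 (mol/l).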

Structure (SMILES)	EC50 [nM]
CNCCCN1C(=O)N2[C@H](c3cccc(O)c3)c3[nH]c4cc(F)c(OC)cc4c3C[C@@]2(C)C1=O (racemic) [Example 303, (3aSR,10RS)-7-Fluoro-10-(3-hydroxy-phenyl)-6-methoxy-3a-methyl-2-(3-methylamino-propyl)-3a,4,9,10-tetrahydro-2,9,10a-triaza-cyclopenta[b]fluorene-1,3-dione]	39.8 to 251
COc1cc2c3c([nH]c2cc1F)[C@@H](c1cccc(O)c1)N1C(=O)N(CCNCCO)C(=O)[C@]1(C)C3 [Example 245, (3aS,10R)-7-Fluoro-2-[2-(2-hydroxy-ethylamino)-ethyl]-10-(3-hydroxy-phenyl)-6-methoxy-3a-methyl-3a,4,9,10-tetrahydro-2,9,10a-triaza-cyclopenta[b]fluorene-1,3-dione]	39.8 to 251
CCN(CCCN1C(=O)N2[C@H](c3cccc(O)c3)c3[nH]c4ccc(Br)cc4c3C[C@@]2(C)C1=O)CCOC (racemic) [Example 217, (3aSR,10RS)-6-Bromo-2-{3-[ethyl-(2-methoxy-ethyl)-amino]-propyl}-10-(3-hydroxy-phenyl)-3a-methyl-3a,4,9,10-tetrahydro-2,9,10a-triaza-cyclopenta[b]fluorene-1,3-dione]	≤ 39.8
CNCCCN1C(=O)N2[C@H](c3cccc(O)c3)c3[nH]c4cc(F)c(Cl)cc4c3C[C@@]2(C)C1=O (racemic) [Example 456, (3aSR,10RS)-6-Chloro-7-fluoro-10-(3-hydroxy-phenyl)-3a-methyl-2-(3-methylamino-propyl)-3a,4,9,10-tetrahydro-2,9,10a-triaza-cyclopenta[b]fluorene-1,3-dione]	39.8 to 251
COc1ccc2[nH]c3c(c2c1)C[C@@]1(C)C(=O)N(CCCCl)C(=O)N1[C@@H]3c1cccc(O)c1 [Example 55a, (3aS,10R)-2-(3-Chloro-propyl)-10-(3-hydroxy-phenyl)-6-methoxy-3a-methyl-3a,4,9,10-tetrahydro-2,9,10a-triaza-cyclopenta[b]fluorene-1,3-dione]	39.8 to 251
COc1ccc2[nH]c3c(c2c1)C[C@@]1(C)C(=O)N(CCCN(C)CCO)C(=O)N1[C@@H]3c1cccc(O)c1 [Example 542, (3aS,10R)-2-{3-[(2-Hydroxy-ethyl)-methyl-amino]-propyl}-10-(3-hydroxy-phenyl)-6-methoxy-3a-methyl-3a,4,9,10-tetrahydro-2,9,10a-triaza-cyclopenta[b]fluorene-1,3-dione]	≤ 39.8
CCOc1ccc2[nH]c3c(c2c1)C[C@@]1(C)C(=O)N(CCCN2CCOCC2)C(=O)N1[C@@H]3c1cccc(O)c1 (racemic) [Example 207, (3aSR,10RS)-6-Ethoxy-10-(3-hydroxy-phenyl)-3a-methyl-2-(3-morpholin-4-yl-propyl)-3a,4,9,10-tetrahydro-2,9,10a-triaza-cyclopenta[b]fluorene-1,3-dione]	39.8 to 251
COc1cc2c3c([nH]c2cc1F)[C@@H](c1cccc(O)c1)N1C(=O)N(CCCN2CC=CCC2)C(=O)[C@]1(C)C3 (racemic) [Example 326, (3aSR,10RS)-2-[3-(3,6-Dihydro-2H-pyridin-1-yl)-propyl]-7-fluoro-10-(3-hydroxy-phenyl)-6-methoxy-3a-methyl-3a,4,9,10-tetrahydro-2,9,10a-triaza-cyclopenta[b]fluorene-1,3-dione]	39.8 to 251
CN(C)CCCN1C(=O)N2[C@H](c3cccc(O)c3)c3[nH]c4ccc(OC(F)F)cc4c3C[C@@]2(C)C1=O (racemic) [Example 314, (3aSR,10RS)-6-(1,1-Difluoro-methoxy)-2-(3-dimethylamino-propyl)-10-(3-hydroxy-phenyl)-3a-methyl-3a,4,9,10-tetrahydro-2,9,10a-triaza-cyclopenta[b]fluorene-1,3-dione]	≤ 39.8
CCOc1ccc2[nH]c3c(c2c1)C[C@@]1(C)C(=O)N(CCNCCOC)C(=O)N1[C@@H]3c1cccc(O)c1 (racemic) [Example 160, (3aSR,10RS)-6-Ethoxy-10-(3-hydroxy-phenyl)-2-[2-(2-methoxy-ethylamino)-ethyl]-3a-methyl-3a,4,9,10-tetrahydro-2,9,10a-triaza-cyclopenta[b]fluorene-1,3-dione]	39.8 to 251
C[C@@]12Cc3c([nH]c4ccc(Br)cc34)[C@@H](c3cccc(O)c3)N1C(=O)N(CCCN1CC=CCC1)C2=O (racemic) [Example 232, (3aSR,10RS)-6-Bromo-2-[3-(3,6-dihydro-2H-pyridin-1-yl)-propyl]-10-(3-hydroxy-phenyl)-3a-methyl-3a,4,9,10-tetrahydro-2,9,10a-triaza-cyclopenta[b]fluorene-1,3-dione]	≤ 39.8
CCOc1ccc2[nH]c3c(c2c1)C[C@@]1(C)C(=O)N(CCN(C)CCO)C(=O)N1[C@@H]3c1cccc(O)c1 (racemic) [Example 297, (3aSR,10RS)-6-Ethoxy-2-{2-[(2-hydroxy-ethyl)-methyl-amino]-ethyl}-10-(3-hydroxy-phenyl)-3a-methyl-3a,4,9,10-tetrahydro-2,9,10a-triaza-cyclopenta[b]fluorene-1,3-dione]	39.8 to 251
COc1cc2c3c([nH]c2cc1F)[C@@H](c1cccc(O)c1)N1C(=O)N(CCCN(C)CCO)C(=O)[C@]1(C)C3 (racemic) [Example 312, (3aSR,10RS)-7-Fluoro-2-{3-[(2-hydroxy-ethyl)-methyl-amino]-propyl}-10-(3-hydroyx-phenyl)-6-methoxy-3a-methyl-3a,4,9,10-tetrahydro-2,9,10a-triaza-cyclopenta[b]fluorene-1,3-dione]	39.8 to 251
CCN(CC)CCN1C(=O)N2[C@H](c3cccc(O)c3)c3[nH]c4cc(F)c(OC)cc4c3C[C@@]2(C)C1=O (racemic) [Example 258, (3aSR,10RS)-2-(2-Diethylamino-ethyl)-7-fluoro-10-(3-hydroxy-phenyl)-6-methoxy-3a-methyl-3a,4,9,10-tetrahydro-2,9,10a-triaza-cyclopenta[b]fluorene-1,3-dione]	39.8 to 251
CC(C)N(C)CCCN1C(=O)N2[C@H](c3cccc(O)c3)c3[nH]c4ccc(OC(F)F)cc4c3C[C@@]2(C)C1=O (racemic) [Example 179, (3aSR,10RS)-6-(1,1-Difluoro-methoxy)-10-(3-hydroxy-phenyl)-2-[3-(isopropyl-methyl-amino)-propyl]-3a-methyl-3a,4,9,10-tetarhydro-2,9,10a-triaza-cyclopenta[b]fluorene-1,3-dione]	≤ 39.8
C[C@@]12Cc3c([nH]c4ccc(Br)cc34)[C@@H](c3cccc(O)c3)N1C(=O)N(CCN1CCCCCC1)C2=O (racemic) [Example 396, (3aSR,10RS)-2-(2-Azepan-1-yl-ethyl)-6-bromo-10-(3-hydroxy-phenyl)-3a-methyl-3a,4,9,10-tetrahydro-2,9,10a-triaza-cyclopenta[b]fluorene-1,3-dione]	39.8 to 251
CCN(CCO)CCCN1C(=O)N2[C@H](c3cccc(O)c3)c3[nH]c4ccc(OC(F)F)cc4c3C[C@@]2(C)C1=O (racemic) [Example 177, (3aSR,10RS)-6-(1,1-Difluoro-methoxy)-2-{3-[ethyl-(2-hydroxy-ethyl)-amino]-propyl}-10-(3-hydroxy-phenyl)-3a-methyl-3a,4,9,10-tetrahydro-2,9,10a-triaza-cyclopenta[b]fluorene-1,3-dione]	≤ 39.8
CCN(CCCN1C(=O)N2[C@H](c3cccc(O)c3)c3[nH]c4cc(F)c(OC)cc4c3C[C@@]2(C)C1=O)CCOC (racemic) [Example 316, (3aSR,10RS)-2-{3-[Ethyl-(2-methoxy-ethyl)-amino]-propyl}-7-fluoro-10-(3-hydroxy-phenyl)-6-methoxy-3a-methyl-3a,4,9,10-tetrahydro-2,9,10a-triaza-cyclopenta[b]fluorene-1,3-dione]	39.8 to 251
CCN(CCOC)CCN1C(=O)N2[C@H](c3cccc(O)c3)c3[nH]c4cc(F)c(OC)cc4c3C[C@@]2(C)C1=O (racemic) [Example 454, (3aSR,10RS)-2-{2-[Ethyl-(2-methoxy-ethyl)-amino]-ethyl}-7-fluoro-10-(3-hydroxy-phenyl)-6-methoxy-3a-methyl-3a,4,9,10-tetrahydro-2,9,10a-triaza-cyclopenta[b]fluorene-1,3-dione]	39.8 to 251
CCN(CCO)CCN1C(=O)N2[C@H](c3cccc(O)c3)c3[nH]c4cc(F)c(OC)cc4c3C[C@@]2(C)C1=O (racemic) [Example 451, (3aSR,10RS)-2-{2-[Ethyl-(2-hydroxy-ethyl)-amino]-ethyl}-7-fluoro-10-(3-hydroxy-phenyl)-6-methoxy-3a-methyl-3a,4,9,10-tetrahydro-2,9,10a-triaza-cyclopenta[b]fluorene-1,3-dione]	39.8 to 251
C[C@@]12Cc3c([nH]c4ccc(OC(F)F)cc34)[C@@H](c3cccc(O)c3)N1C(=O)N(CCCNCC1CC1)C2=O (racemic) [Example 200, (3aSR,10RS)-2-[3-(Cyclopropylmethyl-amino)-propyl]-6-(1,1-difluoro-methoxy)-10-(3-hydroxy-phenyl)-3a-methyl-3a,4,9,10-tetrahydro-2,9,10a-triaza-cyclopenta[b]fluorene-1,3-dione]	39.8 to 251
CCN(CCCN1C(=O)N2[C@H](c3cccc(O)c3)c3[nH]c4ccc(OC(F)F)cc4c3C[C@@]2(C)C1=O)CCOC (racemic) [Example 178, (3aSR,10RS)-6-(1,1-Difluoro-methoxy)-2-{3-[ethyl-(2-methoxy-ethyl)-amino]-propyl}-10-(3-hydroxy-phenyl)-3a-methyl-3a,4,9,10-tetrahydro-2,9,10a-triaza-cyclopenta[b]fluorene-1,3-dione]	≤ 39.8
CC(C)(C)NCCCN1C(=O)N2[C@H](c3cccc(O)c3)c3[nH]c4cc(F)c(Cl)cc4c3C[C@@]2(C)C1=O (racemic) [Example 464, (3aSR,10RS)-2-(3-tert-Butylamino-propyl)-6-chloro-7-fluoro-10-(3-hydroxy-phenyl)-3a-methyl-3a,4,9,10-tetrahydro-2,9,10a-triaza-cyclopenta[b]fluorene-1,3-dione]	39.8 to 251
